Measurements reported in PMC2990348 (Journal of medicinal chemistry, 2010).

Tested on: poliovirus
Type: cell-based

Row | Compound | Frequency of viral mutagenesis compared to ribavirin
1 | Cc1ncnc2c1ccn2[C@@H]1O[C@H](CO)[C@@H](O)[C@H]1O [Compound 6, 4-Methyl-7-β-D-ribofuranosylpyrrolo[2,3-d]pyrimidine] | neither 6 nor 2 increased the frequency of viral mutagenesis
2 | Cc1ncnc2c1ncn2[C@@H]1O[C@H](CO)[C@@H](O)[C@H]1O [Compound 2, 6-methyl-9-β-D-ribofuranosylpurine, reference compound] | neither 6 nor 2 increased the frequency of viral mutagenesis
